The supplement of paper PMC6723410

Tested on: GUMC-403
Test: viability at highest tested concentration (max response) relative to DMSO (% of DMSO control); higher = less cytotoxic
Details: library / dose series: MIPE library, 11-point 1:3 dilution; top concentration 46.1 µM; 48 h
Summary of the method: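 GUMC-403 papilloma cells, derived from a patient and expanded by conditional reprogramming, were dispensed at 700/well into 1536-well plates in 5 μL F + Y medium. A pin tool delivered 23 nL of each compound across an 11-point 1:3 dilution series for 48 h. CellTiter-Glo luminescence, read on a ViewLux, was normalised so that vehicle wells equalled 100% and empty wells 0%. Values report viability at the highest tested concentration relative to vehicle control.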

Structure (SMILES)	viability
COc1cc([C@@H]2c3cc4c(cc3[C@H](O)[C@H]3COC(=O)[C@@H]23)OCO4)cc(OC)c1OC	99.5
CC(C)(C)C1=NC2=C([NH]1)C3=CC=C(F)C=C3C4=C2\C=C/NC4=O	133
COc1ccc(-n2nc(C(N)=O)c3c2C(=O)N(c2ccc(N4CCCCC4=O)cc2)CC3)cc1	146
OC(CCN1CCCCC1)(C2CC\3CC2\C=C3)C4=CC=CC=C4 (centres undefined)	136
OC1=CC=C(C=C1)\C2=C\C(=O)C3=C(O2)C=C(O)C=C3O	138
Cc1ccc(NC(=O)c2cccc(N(C)C)c2)cc1NC(=O)c1ccc(O)cc1	96.6
CCC(C)(C)c1ccc(CC(C)CN2C[C@@H](C)O[C@@H](C)C2)cc1 (some centres undefined)	96.2
NC1(c2ccc(-c3nc4ccn5c(=O)[nH]nc5c4cc3-c3ccccc3)cc2)CCC1	90.4
CC(C)C1NC(=O)C(NC(=O)C2=C3\N=C\4/C(=C(C)\C(=O)\C(=C4C(=O)NC5C(C)OC(=O)C(C(C)C)N(C)C(=O)CN(C)C(=O)C6CCCN6C(=O)C(NC5=O)C(C)C)N)OC3=C(C)C=C2)C(C)OC(=O)C(C(C)C)N(C)C(=O)CN(C)C(=O)C7CCCN7C1=O (centres undefined)	12.2
O=C1CCC[C@@H]2[C@H]3CCCN4CCC[C@@H](CN12)[C@@H]34	117
O=C(CCc1ccc(O)cc1)c1c(O)cc(O)cc1O[C@@H]1O[C@H](CO)[C@@H](O)[C@H](O)[C@H]1O	98.5
CCCCCNC(=O)N1CCC(CN(Cc2ccc(Cl)cc2)Cc2ccc([N+](=O)[O-])s2)C1 (centres undefined)	83.4
CO[C@@H]1[C@@H](O)[C@H](O)[C@@H](n2c3c(Cl)cccc3c3c4c(c5c6cccc(Cl)c6[nH]c5c32)C(=O)NC4=O)O[C@H]1CO	112
O=C(N[C@H](CO)[C@H](O)c1ccc([N+](=O)[O-])cc1)C(Cl)Cl	130
C[C@](Cc1c[nH]c2ccccc12)(NC(=O)OC1C2CC3CC(C2)CC1C3)C(=O)NC[C@H](NC(=O)CCC(=O)O)c1ccccc1 (some centres undefined)	103
CCCCCCOC(=O)/N=C(/N)c1ccc(NCc2nc3cc(C(=O)N(CCC(=O)OCC)c4ccccn4)ccc3n2C)cc1	115
CN(Cc1cc(Br)cc(Br)c1N)C1CCCCC1	122
CN(C)CC[C@H](c1ccc(Cl)cc1)c1ccccn1	112
COC1=CC=CC(=C1/C2=N/CC3=C(N=C(NC4=CC(=C(C=C4)C(O)=O)OC)N=C3)C5=CC=C(Cl)C=C25)F	45.4
O=C(O)C1=NC(C(=O)O)CC(/C=C/N2c3cc(O)c(OC4OC(CO)C(O)C(O)C4O)cc3CC2C(=O)O)=C1 (centres undefined)	135
N#C/C(=C1/Nc2ccccc2S1)c1ccnc(OCc2ccc(CN3CCOCC3)cc2)n1	91.3
O=P1(NCCCl)OCCCN1CCCl (centres undefined)	107
CCOC(=O)\C1=C(/C)N\C2=C(C1C3=CC=C(C=C3)C4=CC=CC=C4)\C(=O)CC(C)(C)C2 (centres undefined)	82.6
ClC1=CC=C(C=C1)C(C#N)C2=C(Cl)C=C(C=C2Cl)N3\N=C/C(=O)NC3=O (centres undefined)	125
NCCCC(O)(P(=O)(O)O)P(=O)(O)O.O.O.O.[Na+]	111
CN1C(=O)/C=C(/NCCN(CCO)CCCC2=CC=C(C=C2)[N+]([O-])=O)N(C)C1=O	94.3
C[C@]1(c2nc3c(C(N)=O)cccc3[nH]2)CCCN1	72.9

Structure (SMILES)	viability
CN1C(=O)\C(=C/C(=C1/NC2=C(F)C=C(I)C=C2)C(=O)NOCCO)C	80.2
c1ccc2c(CCNc3ccc(Nc4ccncc4)cc3)c[nH]c2c1	108
Cc1noc(N[S+](=O)([O-])c2ccc(N)cc2)c1C	130
Cc1cc(Cl)ccc1OCCCC(=O)NO	89.3
OC1=CC2=C(C(=C1)O)C(=O)\C=C(/O2)C3=CC=CC=C3	126
Cc1cc(C(=O)N2CCN(c3cccc(Cl)c3)CC2)n(-c2ccccc2)n1	101
O=C(O)Cn1nnc(-c2cc(N3CCC(Oc4cc(F)ccc4Br)CC3)no2)n1	128
CCOC(=O)N1c2ccc(C(F)(F)F)cc2[C@@H](N(Cc2cc(C(F)(F)F)cc(C(F)(F)F)c2)C(=O)OC)C[C@H]1CC	87.7
OC1=CC=C(C=C1)\C2=C\OC3=C(C(=CC(=C3)O)O)C2=O	77.6
Cc1coc2c1C(=O)C(=O)c1c-2ccc2c(C)cccc12	115
C[C@H]1CN(C[C@@H](C)O1)CC(=O)NC2=CC=C3SC4=C(CC3=C2)C=CC=C4\C5=C\C(=O)\C=C(/O5)N6CCOCC6	115
CC(C)C(=O)Nc1ccc([N+](=O)[O-])c(C(F)(F)F)c1	85.7
CC1=CC2=C(O1)C(=C3OC(=O)\C=C(C)/C3=C2)C	111
CN1CCN(CCOc2cc(OC3CCOCC3)c3c(Nc4c(Cl)ccc5c4OCO5)ncnc3c2)CC1	75.9
COc1c(Cl)cc2c([nH]c3cnccc32)c1NC(=O)c1cccnc1C	96.7
Nc1ncnc2c1c(-c1cccc(OCc3ccccc3)c1)cn2C1CC(CN2CCCC2)C1 (centres undefined)	78.1
CO/N=C(/C(=O)N[C@@H]1C(=O)N2C(C(=O)O)=C(Cn3ccc(=N)n3CCO)CS[C@H]12)c1csc(N)n1	109
c1ccc(CNc2nc(N3CCOc4ccccc43)nc3c2CCCC3)cc1	131
Cc1ccccc1C(=O)Nc1ccc(C(=O)N2CCCC(O)c3cc(Cl)ccc32)c(C)c1 (centres undefined)	108
COc1cccc2c1[C@]13CCN(CC4CC4)[C@H](C2)[C@]1(OC)CCC(=O)C3	107
O=[N+]([O-])c1cnc(Sc2nnc(O)n2-c2ccc3c(c2)OCCO3)s1	91.3
CN1CCN2c3ccccc3Cc3ccccc3C2C1 (centres undefined)	106
CCCCCCCCCCCCCCCC(=O)OC[C@@H](NC(=O)C(Cl)Cl)[C@H](O)c1ccc([N+](=O)[O-])cc1	130
CC1(C)CC(=O)c2c(C(F)(F)F)nn(-c3ccc(C(N)=O)c(NC4CCC(OC(=O)CN)CC4)c3)c2C1 (centres undefined)	84.3
O=C(c1ccc(F)c(F)c1Nc1ccc(I)cc1F)N1CC(O)([C@@H]2CCCCN2)C1	52.2
Cc1ccc(-c2ncn(-c3ccc(Nc4nccc(-c5cccc(N6CCOCC6)c5)n4)cc3)n2)cn1	32
NC(CO)C(=O)NNCc1ccc(O)c(O)c1O (centres undefined)	96.3

Structure (SMILES)	viability
CCCCC[C@H](O)/C=C/[C@H]1[C@H](O)CC(=O)[C@@H]1C/C=C\CCCC(=O)O	119
CN(C)C(=N)NC(=N)N	122
COc1ccc2nc3cc(Cl)ccc3c(Nc3cc(CN4CCCC4)c(O)c(CN4CCCC4)c3)c2n1	116
O=C(c1ccccc1)c1ccc2n1CCC2C(=O)O (centres undefined)	75.8
COC(=O)c1ccc2c(c1)NC(=O)/C2=C(\Nc1ccc(N(C)C(=O)CN2CCN(C)CC2)cc1)c1ccccc1	112
CCC(=O)O[C@@]1(CC[C@H]2[C@@H]3CCC/4=C/C(=O)CC[C@]4(C)[C@H]3CC[C@]12C)C(=O)CO	119
CNC1CCC(N(Cc2cccc(-c3ccncc3)c2)C(=O)c2sc3c(F)ccc(F)c3c2Cl)CC1 (centres undefined)	75.5
C[C@@H]1CN[C@H]2[C@@H](C)[C@@]\3(CC[C@H]\4[C@@H]5C/C=C6/C[C@@H](O)CC[C@]6(C)[C@H]5CC4=C3C)O[C@@H]2C1	116
C[N]1C=NC=C1[C@@](N)(C2=CC=C(Cl)C=C2)C3=CC=C4N(C)C(=O)\C=C(\C5=CC=CC(=C5)Cl)C4=C3	96.3
CC1(C)CC(O)CC(C)(C)N1[O]	121
Cc1ccc(CN2CCNCC2)cc1NC(=O)CNc1ccc(F)c(F)c1	98.9
CC(=O)Nc1ccc(O)cc1	123
O=C(CCN1CCN(C(=O)OCc2cc(Cl)cc(Cl)c2)CC1)c1ccc2[nH]c(=O)oc2c1	109
OC1=C(C=CC=C1)C2=CC=C(C=C2)C3=CSC4=C3C(=C(/C#N)C(=O)N4)/O	125
CC[C@]12\C=C/CN3CC[C@]4([C@@H](N(C)C5=CC(=C(C=C45)[C@]6(C[C@H]7C[C@H](CN(C7)CC8=C6[NH]C9=C8C=CC=C9)C(C)(F)F)C(=O)OC)OC)[C@](O)([C@@H]1OC(C)=O)C(=O)OC)[C@H]23	85
CC[C@]1(O)C[C@H]2CN(CCC3=C([NH]C4=C3C=CC=C4)[C@@](C2)(C(=O)OC)C5=CC6=C(C=C5OC)N(C=O)[C@H]7[C@](O)([C@H](OC(C)=O)[C@]8(CC)\C=C/C[N@@]9CC[C@]67[C@H]89)C(=O)OC)C1	105
Cc1noc(-c2ccc(CSCCC(=O)O)cc2)c1NC(=O)OC(C)c1ccccc1Cl (centres undefined)	106
COC[C@H]1OC(=O)C2=COC3=C2[C@@]1(C)\C4=C(C5CCC(=O)[C@@]5(C)C[C@H]4OC(C)=O)/C3=O (some centres undefined)	88.9
NC(=O)c1cccc2cn(-c3ccc([C@@H]4CCCNC4)cc3)nc12	98.4
C[C@@H]1C/C=C/C=C/C=C/C=C/[C@@H](O[C@@H]2O[C@H](C)[C@@H](O)[C@H](N)[C@@H]2O)C[C@@H]2O[C@](O)(C[C@@H](O)C[C@@H]3O[C@H]3/C=C/C(=O)O1)C[C@H](O)[C@H]2C(=O)O	104
COc1cc([C@@H]2c3cc4c(cc3[C@@H](O)C3COC(=O)C32)OCO4)cc(OC)c1O (some centres undefined)	117
COc1cc(C)c(Sc2cnc(NC(=O)c3ccc(CNC(C)C(C)C)cc3)s2)cc1C(=O)N1CCN(C(C)=O)CC1 (centres undefined)	85.7
CCN(CC)CC#CCOC(=O)C(O)(c1ccccc1)C1CCCCC1 (centres undefined)	127
OC[C@H]1O[C@@H](O[C@@H]2O\C=C(/[C@H]3C\C=C(CO)/[C@@H]23)C(O)=O)[C@H](O)[C@@H](O)[C@@H]1O	124
O=C(O)c1cccnc1Nc1cccc(C(F)(F)F)c1	129
